The record followed here is paper PMC11596612, “Nine New Glycosylated Compounds from the Leaves of the Medicinal Plant Malus hupehensis” (Molecules, 2024).

In the first assay the test system is NO production in LPS-activated RAW 264.7 macrophage cells. In words: Anti-NO activity assay: inhibition of NO production in LPS-activated RAW 264.7 macrophage cells. Type of assay: cell-based. The conditions noted are these: LPS-activated RAW 264.7 cells; means of three independent replicates; ammonium pyrrolidinedithiocarbamate positive control; read-out: NO production inhibitory activity IC50 (RAW 264.7). On the procedure: Using a previously published method, the anti-inflammatory activity of all compounds (1–15) was assessed based on the suppression of NO generation in RAW264.7 cells.
For `S=C(S)N1CCCC1` [Ammonium pyrrolidinedithiocarbamate, reference compound], the IC50 was 20 ± 0.12 µM.

As to `O=C(OC[C@H]1O[C@@H](Oc2cc(O)cc(O)c2C(=O)CCc2ccc(O)cc2)[C@H](O)[C@@H](O)[C@@H]1O)c1ccccc1` [Compound 10, phloridzin 6″-O-benzoate], the 50% inhibitory concentration (IC50) is over 40 µM.

For `O=C(C=Cc1ccccc1)OCC1OC(Oc2cc(O)cc(O)c2C(=O)CCc2ccc(O)cc2)C(O)C(O)C1O` (stereo not shown) [Compound 11, phloridzin 6″-O-cinnamate], the IC50 is over 40 µM.

On to methylenebisphloridzin [Compound 13], for which the IC50 was over 40 µM.

Staying with this assay, now noted: Mus musculus, RAW264.7; LPS-activated RAW 264.7 cells; means of three independent replicates; ammonium pyrrolidinedithiocarbamate positive control; read-out: NO production inhibitory activity IC50 (RAW 264.7).
For the compound `O=C(O[C@H]1[C@H](Oc2cc(O)cc(O)c2C(=O)CCc2ccc(O)cc2)O[C@H](CO)[C@@H](O)[C@@H]1O)c1ccccc1` [Compound 1, malahupinoside C], the IC50 was over 40 µM.

On to `O=C(/C=C/c1ccccc1)O[C@H]1[C@H](Oc2cc(O)cc(O)c2C(=O)CCc2ccc(O)cc2)O[C@H](CO)[C@@H](O)[C@@H]1O` [Compound 2, malahupinoside D], for which the 50% inhibitory concentration (IC50) was over 40 µM.

Turning to `O=C(/C=C/c1ccc(O)cc1)OC[C@H]1O[C@@H](Oc2cc(O)cc(O)c2C(=O)CCc2ccc(O)cc2)[C@H](O)[C@@H](O)[C@@H]1O` [Compound 3, malahupinoside E], the IC50 was over 40 µM.

Consider `COc1cc(/C=C/C(=O)OC[C@H]2O[C@@H](Oc3cc(O)cc(O)c3C(=O)CCc3ccc(O)cc3)[C@H](O)[C@@H](O)[C@@H]2O)ccc1O` [Compound 4, malahupinoside F], for which the IC50 stood at 29.6 µM.

In the case of `COc1cccc2c1oc1c(OC)cc(O)cc12` [Compound 5], the IC50 is over 40 µM.

For the compound `COc1cccc2c1oc1c(OC)cc(O)c(OC3OC(CO)C(O)C(O)C3O)c12` (stereo not shown) [Compound 6, fortuneanoside N], the half-inhibitory concentration (IC50) is over 40 µM.

Consider `COc1cc(O)c(OC2OC(CO)C(O)C(O)C2O)c2c1oc1ccccc12` (stereo not shown) [Compound 7, fortuneanoside O], for which the IC50 was over 40 µM.

In the case of `COc1cc(OC)cc(-c2ccccc2OC2OC(CO)C(O)C(O)C2O)c1` (stereo not shown) [Compound 8, fortuneanoside P], the 50% inhibitory concentration (IC50) is over 40 µM.

Consider `COc1cc(OC)c(OC2OC(CO)C(O)C(O)C2O)c(-c2ccccc2O)c1` (stereo not shown) [Compound 9, fortuneanoside Q], for which the IC50 was over 40 µM.

As for `O=C(/C=C/c1ccc(O)cc1)Oc1ccc(CCC(=O)c2c(O)cc(O)cc2O[C@@H]2O[C@H](CO)[C@@H](O)[C@H](O)[C@H]2O)cc1` [Compound 12, 4-[3-[2-(β-D-Glucopyranosyloxy)-4,6-dihydroxyphenyl]-3-oxopropyl]phenyl(2E)-3-(4-hydroxyphenyl)-2-propenoate], the IC50 is over 40 µM.

Regarding `COc1cc(O)cc2c1oc1ccccc12` [Compound 14, 2-Hydroxy-4-methoxydibenzofuran], the IC50 is over 40 µM.

For `COc1cc(OC)cc(-c2ccc(O)c(O[C@@H]3O[C@H](CO)[C@@H](O)[C@H](O)[C@H]3O)c2)c1` [Compound 15, 3′,5′-Dimethoxy-(1,1′-biphenyl)-3,4-diol 3-O-β-D-glucopyranoside], the IC50 was over 40 µM.
